7 compounds from ChEMBL document CHEMBL5576077, “A small-molecule degron with a phenylpropionic acid scaffold” (Bioorg Med Chem, 2024) can be followed below.

SMILES strings stand for the structures. The source made the active and inactive calls. The rule behind the calls is not given here.

A short description of test [1]: Thermal stabilization of GST-fused HaloTag fusion protein (unknown origin) at 100 uM by SYPRO Orange dye based TSA assay.
Test [2] addresses T1, S-phase kinase-associated protein 2/Bifunctional ligase/repressor BirA (Homo sapiens) (UniProt P06709+Q13309). Nature of the test: PROTAC activity at Skp2 in HeLa cells/N-terminal HaloTag7-fused TurboID (unknown origin) stably expressed in HeLa cells assessed as protein degradation at 30 uM incubated for 8 hrs in presence of MLN4924 by Western blot analysis. The format is cell-based. For orientation: In western blotting, separated proteins are transferred to a membrane and probed.

Test [3] has as its target T1, S-phase kinase-associated protein 2/Bifunctional ligase/repressor BirA (Homo sapiens). As to the kind of experiment: PROTAC activity at Skp2 in HeLa cells/N-terminal HaloTag7-fused TurboID (unknown origin) stably expressed in HeLa cells assessed as protein degradation at 30 uM incubated for 3 hrs by Western blot analysis. In kind it is cell-based.
Test [4] has the same target. As to the kind of experiment: PROTAC activity at Skp2 in HeLa cells/N-terminal HaloTag7-fused TurboID (unknown origin) stably expressed in HeLa cells assessed as protein degradation at 30 uM incubated for 3 to 8 hrs in presence of Epoxomicin by Western blot analysis. The format is cell-based. As to conditions: time 3-8 hrs.
Test [5] shares this target. As to the kind of experiment: PROTAC activity at Skp2 in HeLa cells/N-terminal HaloTag7-fused TurboID (unknown origin) stably expressed in HeLa cells assessed as protein degradation at 30 uM incubated for 3 to 8 hrs in presence of BafA by Western blot analysis. As to conditions: time 3-8 hrs. The format is cell-based.
Test [6] has as its target T2, S-phase kinase-associated protein 2/Haloalkane dehalogenase (Homo sapiens) (UniProt Q13309+P0A3G3). As to the kind of experiment: PROTAC activity at Skp2 in HEK293 cells/HaloTag7 fusion protein (unknown origin) stably expressed in HEK293 cells assessed as protein degradation by measuring test to control ratio at 3 uM incubated for 24 hrs by Western blot analysis. The format is cell-based.

The target of test [7] is T1, S-phase kinase-associated protein 2/Bifunctional ligase/repressor BirA (Homo sapiens). As to the kind of experiment: PROTAC activity at Skp2 in HeLa cells/N-terminal HaloTag7-fused TurboID (unknown origin) stably expressed in HeLa cells assessed as protein degradation at 30 uM incubated for 3 to 8 hrs in presence of NH4Cl by Western blot analysis. As to conditions: time 3-8 hrs. The format is cell-based.

Test [8] has the same target. Nature of the test: PROTAC activity at Skp2 in HeLa cells/N-terminal HaloTag7-fused TurboID (unknown origin) stably expressed in HeLa cells assessed as protein degradation at 30 uM incubated for 3 to 8 hrs in presence of MG132 by Western blot analysis. The format is cell-based. As to conditions: time 3-8 hrs.
The target is the same in test [9]. Nature of the test: PROTAC activity at Skp2 in HeLa cells/N-terminal HaloTag7-fused TurboID (unknown origin) stably expressed in HeLa cells assessed as protein degradation at 30 uM incubated for 8 hrs by Western blot analysis. The format is cell-based.
For test [10], the target named is T2, S-phase kinase-associated protein 2/Haloalkane dehalogenase (Homo sapiens). As to the kind of experiment: PROTAC activity at Skp2 in HEK293 cells/HaloTag7-ELuc fusion protein (unknown origin) stably expressed in HEK293 cells assessed as protein degradation at 1 to 10 uM incubated for 24 hrs by Western blot analysis. In kind it is cell-based. As to conditions: dose 1-10 µM.

For test [11] the target is unchanged. As to the kind of experiment: PROTAC activity at Skp2 in HEK293 cells/HaloTag7 fusion protein (unknown origin) stably expressed in HEK293 cells assessed as protein degradation by measuring test to control ratio at 0.3 uM incubated for 24 hrs by Western blot analysis. The format is cell-based.
Test [12] shares this target. As to the kind of experiment: PROTAC activity at Skp2 in HEK293 cells/HaloTag7 fusion protein (unknown origin) stably expressed in HEK293 cells assessed as protein degradation by measuring test to control ratio at 1 uM incubated for 24 hrs by Western blot analysis. In kind it is cell-based.

As to `O=C(O)CCc1ccc(OCCOCCOCCOCCOCCCCCCCl)cc1/C=C1\SC(=S)N(Cc2cccnc2)C1=O`, the result in [1], in test [2], in test [3], in test [5] and in [7] was Active. Also, the outcome in [4] and in test [8] was inactive. In addition, the T/C in test [6] came out at 25.
In the case of `OCCOCCOCCOCCOCCCCCCCl`, the result in test [9] was inactive.
For `O=C(O)CCc1ccc(OCCCOCCCOCCCCCCCl)cc1/C=C1\SC(=S)N(Cc2cccnc2)C1=O`, the outcome in test [10] was Active.
`O=C(O)COc1ccc(O)cc1/C=C1\SC(=S)N(Cc2cccnc2)C1=O`: the outcome in [9] was inactive.
Regarding `O=C(O)CCc1ccc(OCCOCCOCCOCCCCCCCl)cc1/C=C1\SC(=S)N(Cc2cccnc2)C1=O`, the T/C in test [6] is 81.
Consider `O=C(O)CCc1ccc(OCCOCCOCCOCCOCCOCCCCCCCl)cc1/C=C1\SC(=S)N(Cc2cccnc2)C1=O`, for which the T/C in test [11] came out at 82; in [6], 37; in [12], 64.
Turning to `O=C(O)COc1ccc(OCCOCCOCCOCCOCCOCCCCCCCl)cc1/C=C1\SC(=S)N(Cc2cccnc2)C1=O`, the T/C in test [11] came out at 111; in test [6] it was 103; in test [12] it was 121.
